Experiment [1] concerns Streptococcus pneumoniae. Nature of the experiment: Antibacterial activity against Streptococcus pneumoniae serotype 19F by broth microdilution method in presence of clavulanate. The experiment is classed as functional. For orientation: Broth dilution looks for growth in wells or tubes with falling amounts of substance.
Experiment [2] deals with Streptococcus pneumoniae. Nature of the experiment: Antibacterial activity against Streptococcus pneumoniae serotype 35B assessed as percent resistant isolates by broth microdilution method in presence of clavulanate. The format is functional.
Experiment [3] concerns Streptococcus pneumoniae. Nature of the experiment: Antibacterial activity against Streptococcus pneumoniae serotype 35B assessed as percent susceptible isolates by broth microdilution method in presence of clavulanate. The format is functional.
The subject of experiment [4] is Streptococcus pneumoniae. Nature of the experiment: Antibacterial activity against Streptococcus pneumoniae serotype 6A/C by broth microdilution method in presence of clavulanate. The format is functional.
In experiment [5] the test system is Streptococcus pneumoniae. Nature of the experiment: Antibacterial activity against Streptococcus pneumoniae serotype 33 by broth microdilution method in presence of clavulanate. The format is functional.
The test system of experiment [6] is Streptococcus pneumoniae. Nature of the experiment: Antibacterial activity against Streptococcus pneumoniae serotype 19A assessed as percent resistant isolates by broth microdilution method in presence of clavulanate. The format is functional.
Experiment [7] concerns Streptococcus pneumoniae. Nature of the experiment: Antibacterial activity against Streptococcus pneumoniae serotype 33 assessed as percent susceptible isolates by broth microdilution method in presence of clavulanate. The format is functional.
The test system of experiment [8] is Streptococcus pneumoniae. Nature of the experiment: Antibacterial activity against Streptococcus pneumoniae serotype 35B by broth microdilution method in presence of clavulanate. The format is functional.
Experiment [9] relates to Streptococcus pneumoniae. Nature of the experiment: Antibacterial activity against Streptococcus pneumoniae serotype 15A by broth microdilution method in presence of clavulanate. The format is functional.
The test system of experiment [10] is Streptococcus pneumoniae. Nature of the experiment: Antibacterial activity against Streptococcus pneumoniae serotype 19F assessed as percent susceptible isolates by broth microdilution method in presence of clavulanate. The format is functional.
The subject of experiment [11] is Streptococcus pneumoniae. Nature of the experiment: Antibacterial activity against Streptococcus pneumoniae serotype 15A assessed as percent resistant isolates by broth microdilution method in presence of clavulanate. The experiment is classed as functional.
The test system of experiment [12] is Streptococcus pneumoniae. Nature of the experiment: Antibacterial activity against Streptococcus pneumoniae serotype 22 by broth microdilution method in presence of clavulanate. The experiment is classed as functional.
Experiment [13] relates to Streptococcus pneumoniae. Nature of the experiment: Antibacterial activity against Streptococcus pneumoniae serotype 3 assessed as percent resistant isolates by broth microdilution method in presence of clavulanate. The format is functional.
The test system of experiment [14] is Streptococcus pneumoniae. Nature of the experiment: Antibacterial activity against Streptococcus pneumoniae serotype 23A assessed as percent resistant isolates by broth microdilution method in presence of clavulanate. The format is functional.
The test system of experiment [15] is Streptococcus pneumoniae. Nature of the experiment: Antibacterial activity against Streptococcus pneumoniae serotype 22 assessed as percent resistant isolates by broth microdilution method in presence of clavulanate. The format is functional.
Experiment [16] relates to Streptococcus pneumoniae. Nature of the experiment: Antibacterial activity against Streptococcus pneumoniae serotype 3 by broth microdilution method in presence of clavulanate. The experiment is classed as functional.
For experiment [17], the system named is Streptococcus pneumoniae. Nature of the experiment: Antibacterial activity against Streptococcus pneumoniae serotype 33 assessed as percent resistant isolates by broth microdilution method in presence of clavulanate. The experiment is classed as functional.
Experiment [18] relates to Streptococcus pneumoniae. Nature of the experiment: Antibacterial activity against Streptococcus pneumoniae serotype 23A by broth microdilution method in presence of clavulanate. The format is functional.
The subject of experiment [19] is Streptococcus pneumoniae. Nature of the experiment: Antibacterial activity against Streptococcus pneumoniae serotype 19A by broth microdilution method in presence of clavulanate. The experiment is classed as functional.
Experiment [20] has as its system Streptococcus pneumoniae. Nature of the experiment: Antibacterial activity against Streptococcus pneumoniae serotype 6A/C assessed as percent resistant isolates by broth microdilution method in presence of clavulanate. The experiment is classed as functional.
Experiment [21] relates to Streptococcus pneumoniae. Nature of the experiment: Antibacterial activity against Streptococcus pneumoniae serotype 19A assessed as percent susceptible isolates by broth microdilution method in presence of clavulanate. The format is functional.
The test system of experiment [22] is Streptococcus pneumoniae. Nature of the experiment: Antibacterial activity against Streptococcus pneumoniae serotype 19F assessed as percent resistant isolates by broth microdilution method in presence of clavulanate. The format is functional.
For experiment [23], the system named is Streptococcus pneumoniae. Nature of the experiment: Antibacterial activity against Streptococcus pneumoniae serotype 23A assessed as percent susceptible isolates by broth microdilution method in presence of clavulanate. The experiment is classed as functional.
For experiment [24], the system named is Streptococcus pneumoniae. Nature of the experiment: Antibacterial activity against Streptococcus pneumoniae serotype 6A/C assessed as percent susceptible isolates by broth microdilution method in presence of clavulanate. The format is functional.
For experiment [25], the system named is Streptococcus pneumoniae. Nature of the experiment: Antibacterial activity against Streptococcus pneumoniae serotype 15A assessed as percent susceptible isolates by broth microdilution method in presence of clavulanate. The format is functional.
For experiment [26], the system named is Streptococcus pneumoniae. Nature of the experiment: Antibacterial activity against Streptococcus pneumoniae serotype 3 assessed as percent susceptible isolates by broth microdilution method in presence of clavulanate. The format is functional.
Experiment [27] deals with Streptococcus pneumoniae. Nature of the experiment: Antibacterial activity against Streptococcus pneumoniae serotype 22 assessed as percent susceptible isolates by broth microdilution method in presence of clavulanate. The experiment is classed as functional.
Experiment [28] has as its system Streptococcus pneumoniae. Nature of the experiment: Antibacterial activity against Streptococcus pneumoniae serotype 19F by broth microdilution method. The experiment is classed as functional.
Experiment [29] relates to Streptococcus pneumoniae. Nature of the experiment: Antibacterial activity against multidrug-resistant Streptococcus pneumoniae. The experiment is classed as functional.
The test system of experiment [30] is Streptococcus pneumoniae. Nature of the experiment: Antibacterial activity against Streptococcus pneumoniae serotype 35B by broth microdilution method. The experiment is classed as functional.
The subject of experiment [31] is Streptococcus pneumoniae. Nature of the experiment: Antibacterial activity against Streptococcus pneumoniae serotype 15A by broth microdilution method. The experiment is classed as functional.
Experiment [32] relates to Streptococcus pneumoniae. Nature of the experiment: Antibacterial activity against Streptococcus pneumoniae serotype 23A by broth microdilution method. The format is functional.
Experiment [33] has as its system Streptococcus pneumoniae. Nature of the experiment: Antibacterial activity against non-multidrug-resistant Streptococcus pneumoniae. The experiment is classed as functional.
Experiment [34] in a line: T>MIC in mouse prophylaxis model infected with Bacillus anthracis. The format is functional.
For experiment [35], the system named is Streptococcus pneumoniae. Nature of the experiment: Antibacterial activity against Streptococcus pneumoniae serotype 6A/C by broth microdilution method. The format is functional.
Experiment [36] deals with Streptococcus pneumoniae. Nature of the experiment: Antibacterial activity against Streptococcus pneumoniae serotype 33 by broth microdilution method. The experiment is classed as functional.
The test system of experiment [37] is Streptococcus pneumoniae. Nature of the experiment: Antibacterial activity against Streptococcus pneumoniae serotype 22 by broth microdilution method. The experiment is classed as functional.
Experiment [38] deals with Streptococcus pneumoniae. Nature of the experiment: Antibacterial activity against multidrug-resistant Streptococcus pneumoniae infected in mouse neutropenic thigh infection model. The experiment is classed as functional. The note with it: Thigh muscle.
A short description of experiment [39]: T>MIC in mouse neutropenic thigh infection model infected with multidrug-resistant Streptococcus pneumoniae. The format is functional, Thigh muscle.
Experiment [40] has as its system Streptococcus pneumoniae. Nature of the experiment: Antibacterial activity against Streptococcus pneumoniae serotype 19A by broth microdilution method. The format is functional.
In experiment [41] the test system is Streptococcus pneumoniae. Nature of the experiment: Antibacterial activity against Streptococcus pneumoniae serotype 3 by broth microdilution method. The experiment is classed as functional.

Converted amounts (≈) assume the structure as drawn.

In general, MIC90 refers to the lowest concentration that inhibits either 90% of growth or 90% of the strains tested, depending on the study. In the case of `CC1(C)S[C@@H]2[C@H](NC(=O)[C@H](N)c3ccc(O)cc3)C(=O)N2[C@H]1C(=O)O` [AMOXICILLIN], the MIC90 in [1] is 16 µg/mL; in [4], 1 µg/mL; in experiment [5], at most 0.12 µg/mL; in experiment [8], 2 µg/mL; in experiment [9], 0.25 µg/mL; in [12], at most 0.12 µg/mL. Also, the MIC90 is at most 0.12 µg/mL in [16], 0.25 µg/mL in experiment [18] and 8 µg/mL in experiment [19]. Besides, the % resistant isolates in experiment [2] came to 0%; in [6] it was 35%; in [11], 0%; in experiment [13], 0%; in experiment [14] it was 0%; in experiment [15], 0%. In addition, the % resistant isolates amounted to 0% in [17], 3% in experiment [20] and 48% in experiment [22]. Moreover, the % susceptible isolates in experiment [3] came out at 100%; in experiment [7], 100%; in experiment [10] it was 47%; in experiment [21], 62%; in experiment [23], 100%; in experiment [24], 97%. For the same compound, the % susceptible isolates in [25], in [26] and in experiment [27] was 100% throughout.
With `C[C@@H](O)[C@H]1C(=O)N2C(C(=O)O)=C([C@H]3CCCO3)S[C@H]12` [FAROPENEM], the MIC90 in experiment [28] was 1 µg/mL (≈ 3.5 µM); in experiment [29], 2 µg/mL (≈ 7.01 µM); in [30], 0.5 µg/mL (≈ 1.75 µM); in experiment [31] it was 0.12 µg/mL (≈ 0.421 µM); in [32] it was 0.06 µg/mL (≈ 0.21 µM); in experiment [33], 0.25 µg/mL (≈ 0.876 µM). For the same compound, the MIC90 in experiment [35] was 0.25 µg/mL (≈ 0.876 µM); in [36], 0.015 µg/mL (≈ 0.0526 µM); in [37], 0.015 µg/mL (≈ 0.0526 µM); in experiment [38], over 2 µg/mL; in experiment [40], 1 µg/mL (≈ 3.5 µM); in experiment [41], 0.015 µg/mL (≈ 0.0526 µM). In addition, the “fT>MIC” value in [34] was determined as 16.4%; in [39], 13.9%.

Source of the values: ChEMBL document CHEMBL1275437, “Prevalence of serotype 19A Streptococcus pneumoniae among isolates from U.S. children in 2005-2006 and activity of faropenem” (2008).
